The values that follow come from patent US12544391B2, “CD73 inhibitors” (ORIC Pharmaceuticals, Inc., priority 2019, dated 2026).

The target in this assay is T1, CD73 (Homo sapiens, UniProt P21589).
T1 sequence (P21589 27-549): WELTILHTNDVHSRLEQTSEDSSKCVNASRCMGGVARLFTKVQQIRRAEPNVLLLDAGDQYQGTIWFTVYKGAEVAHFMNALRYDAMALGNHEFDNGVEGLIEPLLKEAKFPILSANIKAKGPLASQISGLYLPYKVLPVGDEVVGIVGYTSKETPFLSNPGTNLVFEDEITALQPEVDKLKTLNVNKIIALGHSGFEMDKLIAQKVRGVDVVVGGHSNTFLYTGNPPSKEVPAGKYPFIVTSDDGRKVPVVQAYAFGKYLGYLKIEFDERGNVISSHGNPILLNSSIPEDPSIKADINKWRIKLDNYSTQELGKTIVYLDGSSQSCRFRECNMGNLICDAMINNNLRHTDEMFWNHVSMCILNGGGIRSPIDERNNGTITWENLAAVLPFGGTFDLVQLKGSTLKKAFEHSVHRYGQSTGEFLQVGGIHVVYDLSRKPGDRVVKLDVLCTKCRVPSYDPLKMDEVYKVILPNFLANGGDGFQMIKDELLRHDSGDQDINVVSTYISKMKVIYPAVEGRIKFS
The assay is described as follows: CD73 biochemical assay, Malachite Green detection of AMP hydrolysis. Particulars: CD73 320 pM, AMP 15 μM, Malachite Green readout. How it is done:
Assay Reaction Conditions
• Assay Volume: 70 μl • Reaction Volume: 50 μl • CD73: 0.3208 nM • AMP: 15 μM • Assay Buffer: 2 5 mM Tris-HCL, pH 7.4, 0.01% Brij-35, 0.01% BSA, 5 mM MgCl2 Assay Procedure:
A clear 384 well plate was used in this assay.
Made dose titration of testing compounds in assay buffer, 10 points ½ log titrations in duplicates starting at 100 μM. Total volume for each well was 25 μl, with CD73 then added to each well for a final concentration of 320 pM. The solution was then incubated at RT for 15 min. 25 μl of AMP was added to each well for a final concentration of 15 μM, and then incubated at rt for 10 min. 10 μl of Malachite Green Reagent A was then added and allowed to incubate at rt for 10 min. 10 μl of Malachite Green Reagent B was then added and allowed to incubate at rt for 45 min. The absorbance for each sample was read on an Envision plate reader using excitation filter: Cy5 […].
The ability of the compounds disclosed herein to inhibit CD73 activity was quantified and the respective IC50 values were determined. Table 2 provides the biochemical IC50 values of compounds disclosed herein.
The IC50 is the concentration that inhibits the measured activity by half. A higher IC50 goes with a need for much substance. For `COC[C@](COCC(=O)O)(OC[C@H]1O[C@@H](c2ccc3c(NC4CCCC4)nc(Cl)nn23)[C@H](O)[C@@H]1O)P(=O)(O)O` [Example 25, 2-((S)-2-(((2R,3S,4R,5S)-5-(2-chloro-4-(cyclopentylamino)pyrrolo[2,1-f][1,2,4]triazin-7-yl)-3,4-dihydroxytetrahydrofuran-2-yl)methoxy)-3-methoxy-2-phosphonopropoxy)acetic acid], the IC50 is not above 0.5 nM.

For the compound `CCOC(=O)COC[C@@](COC)(OC[C@H]1O[C@@H](c2ccc3c(NC4CCCC4)nc(Cl)nn23)[C@H](O)[C@@H]1O)P(=O)(O)O` [Example 26, ((S)-2-(((2R,3S,4R,5S)-5-(2-chloro-4-(cyclopentylamino)pyrrolo[2,1-f][1,2,4]triazin-7-yl)-3,4-dihydroxytetrahydrofuran-2-yl)methoxy)-1-(2-ethoxy-2-oxoethoxy)-3-methoxypropan-2-yl)phosphonic acid], the IC50 is not above 0.5 nM.

Regarding `O=P(O)(O)C(CO)(CO)OC[C@H]1O[C@@H](c2ccc3c(NCc4ccccc4Cl)nc(Cl)nn23)[C@H](O)[C@@H]1O` [Example 27, (2-(((2R,3S,4R,5S)-5-(2-chloro-4-((2-chlorobenzyl)amino)pyrrolo[2,1-f][1,2,4]triazin-7-yl)-3,4-dihydroxytetrahydrofuran-2-yl)methoxy)-1,3-dihydroxypropan-2-yl)phosphonic acid], the IC50 was in the range of 1 to 100 nM.

The compound `O=P(O)(O)C(COCc1nnn[nH]1)(COCc1nnn[nH]1)OC[C@H]1O[C@@H](c2ccc3c(NC4CCCC4)nc(Cl)nn23)[C@H](O)[C@@H]1O` [Example 28, (1,3-bis((1H-tetrazol-5-yl)methoxy)-2-(((2R,3S,4R,5S)-5-(2-chloro-4-(cyclopentylamino)pyrrolo[2,1-f][1,2,4]triazin-7-yl)-3,4-dihydroxytetrahydrofuran-2-yl)methoxy)propan-2-yl)phosphonic acid] gave a half-inhibitory concentration (IC50) not above 0.5 nM.

As to `C[C@@]1(c2ccc3c(NC4CCCC4)nc(Cl)nn23)O[C@H](COC(CO)(COCc2nnn[nH]2)P(=O)(O)O)[C@@H](O)[C@H]1O` (stereo partly drawn) [Example 29, (1-((1H-tetrazol-5-yl)methoxy)-2-(((2R,3S,4R,5S)-5-(2-chloro-4-(cyclopentylamino)pyrrolo[2,1-f][1,2,4]triazin-7-yl)-3,4-dihydroxy-5-methyltetrahydrofuran-2-yl)methoxy)-3-hydroxypropan-2-yl)phosphonic acid], the IC50 was in the range of 100 to 1000 nM.

`COCC(COC)(OC[C@H]1O[C@@H](c2ccc3c(NC4CCCC4)nc(Cl)nn23)[C@H](O)[C@@H]1O)P(=O)(O)O` [Example 30, (2-(((2R,3S,4R,5S)-5-(2-chloro-4-(cyclopentylamino)pyrrolo[2,1-f][1,2,4]triazin-7-yl)-3,4-dihydroxytetrahydrofuran-2-yl)methoxy)-1,3-dimethoxypropan-2-yl)phosphonic acid] yielded an IC50 not above 0.5 nM.

In the case of `COC[C@@](C)(OC[C@H]1O[C@@H](c2ccc3c(NC4CCCC4)nc(Cl)nn23)[C@H](O)[C@@H]1O)P(=O)(O)O` [Example 31, ((S)-2-(((2R,3S,4R,5S)-5-(2-chloro-4-(cyclopentylamino)pyrrolo[2,1-f][1,2,4]triazin-7-yl)-3,4-dihydroxytetrahydrofuran-2-yl)methoxy)-1-methoxypropan-2-yl)phosphonic acid], the IC50 lay in the range of 1 to 100 nM.

The compound `COC[C@](C)(OC[C@H]1O[C@@H](c2ccc3c(NC4CCCC4)nc(Cl)nn23)[C@H](O)[C@@H]1O)P(=O)(O)O` [Example 32, ((R)-2-(((2R,3S,4R,5S)-5-(2-chloro-4-(cyclopentylamino)pyrrolo[2,1-f][1,2,4]triazin-7-yl)-3,4-dihydroxytetrahydrofuran-2-yl)methoxy)-1-methoxypropan-2-yl)phosphonic acid] registered an IC50 not above 0.5 nM.
